*1 amine or outer side, *2 acyl side, *3 side chain or, on linkers, in order; H or OH if unused. Where a SMILES comes first, the peptide text is derived from it. Side-chain parts run from the residue outwards. [ ]: non-standard residue; d: D form. The star is where a group is joined. ξ: configuration not given here. Shikimoyl = O=C(C1=C[C@@H](O)[C@@H](O)[C@H](O)C1)*; ξTetrahydrofuran2carbonyl = O=C(C1CCCO1)*; dPhe(4-Cl) = N[C@H](Cc1ccc(Cl)cc1)C(=O)O; d2Nal = N[C@H](Cc1ccc2ccccc2c1)C(=O)O; Lys(iPr) = CC(C)NCCCC[C@H](N)C(=O)O; NMeY = CN[C@@H](Cc1ccc(O)cc1)C(=O)O; Ethylenediamine = C(CN[*:2])N[*:1]; Pyrazinecarbonyl = O=C(c1cnccn1)*; d3Pal = N[C@H](Cc1cccnc1)C(=O)O; Salicyloyl = O=C(c1ccccc1O)*; Nicotinoyl = O=C(c1cccnc1)*; dOrn = NCCC[C@@H](N)C(=O)O; CO = O=C([*:1])[*:2]; GABA = NCCCC(=O)O; azaGly = NNC(=O)O; βAla = NCCC(=O)O
Target: T1, LHRH receptor (Rattus norvegicus, UniProt P30969)
T1 construct: endogenous in cells
T1 sequence (P30969 1-327): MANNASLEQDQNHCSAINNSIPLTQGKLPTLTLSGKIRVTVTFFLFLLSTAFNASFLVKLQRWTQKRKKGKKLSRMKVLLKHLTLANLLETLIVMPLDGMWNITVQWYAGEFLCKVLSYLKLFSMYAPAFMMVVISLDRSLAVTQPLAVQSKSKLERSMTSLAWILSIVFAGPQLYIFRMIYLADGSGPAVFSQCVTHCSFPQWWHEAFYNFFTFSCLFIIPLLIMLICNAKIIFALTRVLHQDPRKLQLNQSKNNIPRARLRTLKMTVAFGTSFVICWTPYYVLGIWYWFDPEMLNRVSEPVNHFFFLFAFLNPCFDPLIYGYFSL
Assay: in vitro LHRH antagonist potency (pA2) against the agonist leuprolide
Type: cell-based
Conditions: negative logarithm of the antagonist concentration which shifts the response curve produced by the agonist leuprolide to two-fold higher concentration
In short: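 Functional antagonism against the agonist leuprolide. pA2 is the negative log of antagonist concentration that shifts the leuprolide response curve to twofold higher concentration.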

CC(=O)N[C@H](Cc1ccc2ccccc2c1)C(=O)N[C@H](Cc1ccc(Cl)cc1)C(=O)N[C@H](Cc1cccnc1)C(=O)N[C@@H](CO)C(=O)N(C)[C@@H](Cc1ccc(O)cc1)C(=O)N[C@H](CCCCNC(=O)NCCNC(=O)c1cccnc1)C(=O)N[C@@H](CC(C)C)C(=O)N[C@@H](CCCCNC(C)C)C(=O)N1CCC[C@H]1C(=O)N[C@H](C)C(N)=O [Example 62, NAc-D2Nal^1 -D4ClPhe^2 -D3Pal^3 -Ser^4 -NMeTyr^5 -DLys(N-epsilon-N'-Carbonyl-Diaminoethane-N"-Nicotinyl)^6 -Leu^7 -Lys(N-epsilon-Isopropyl)^8 -Pro^9 -DAla^10 NH2] (Ac-[d2Nal][dPhe(4-Cl)][d3Pal]S[NMeY][dK]([CO-Ethylenediamine-Nicotinoyl])L[Lys(iPr)]P[dA]-NH2)
Kb: 0.0263 nM

CC(=O)N[C@H](Cc1ccc2ccccc2c1)C(=O)N[C@H](Cc1ccc(Cl)cc1)C(=O)N[C@H](Cc1cccnc1)C(=O)N[C@@H](CO)C(=O)N(C)[C@@H](Cc1ccc(O)cc1)C(=O)N[C@H](CCCCNC(=O)[C@@H](CO)NC(=O)C1=C[C@@H](O)[C@@H](O)[C@H](O)C1)C(=O)N[C@@H](CC(C)C)C(=O)N[C@@H](CCCNC(=N)N)C(=O)N1CCC[C@H]1C(=O)N[C@H](C)C(N)=O [Example 11, NAc-D2Nal^1 -D4ClPhe^2 -D3Pal^3 -Ser^4 -NMeTyr^5 -DLys(N-epsilon-DSer-Shikimyl)^6 -Leu^7 -Arg^8 -Pro^9 -DAla^10 NH2] (Ac-[d2Nal][dPhe(4-Cl)][d3Pal]S[NMeY][dK]([dS-Shikimoyl])LRP[dA]-NH2)
Kb: 0.017 nM

CC(=O)N[C@H](Cc1ccc2ccccc2c1)C(=O)N[C@H](Cc1ccc(Cl)cc1)C(=O)N[C@H](Cc1cccnc1)C(=O)N[C@@H](CO)C(=O)N(C)[C@@H](Cc1ccc(O)cc1)C(=O)N[C@H](CCCCNC(=O)[C@@H](CO)NC(=O)c1cnccn1)C(=O)N[C@@H](CC(C)C)C(=O)N[C@@H](CCCNC(=N)N)C(=O)N1CCC[C@H]1C(=O)N[C@H](C)C(N)=O [Example 50g, NAc-D2Nal^1 -D4ClPhe^2 -D3Pal^3 -Ser^4 -NMeTyr^5 -DLys(N-epsilon-DSer-2-Pyrazinecarbonyl)^6 -Leu^7 -Arg^8 -Pro^9 -DAla^10 NH2] (Ac-[d2Nal][dPhe(4-Cl)][d3Pal]S[NMeY][dK]([dS-Pyrazinecarbonyl])LRP[dA]-NH2)
Kb: 0.0126 nM

CC(=O)N[C@H](Cc1ccc2ccccc2c1)C(=O)N[C@H](Cc1ccc(Cl)cc1)C(=O)N[C@H](Cc1cccnc1)C(=O)N[C@@H](CO)C(=O)N(C)[C@@H](Cc1ccc(O)cc1)C(=O)N[C@H](CCCCNC(=O)NCCNC(=O)C1=C[C@@H](O)[C@@H](O)[C@H](O)C1)C(=O)N[C@@H](CC(C)C)C(=O)N[C@@H](CCCNC(=N)N)C(=O)N1CCC[C@H]1C(=O)N[C@H](C)C(N)=O [Example 15, NAc-D2Nal^1 -D4ClPhe^2 -D3Pal^3 -Ser^4 -NMeTyr^5 -DLys[N-epsilon-(N'-Carbonyl-Diaminoethane-N"-Shikimyl)]^6 -Leu^7 -Arg^8 -Pro^9 -DAla^10 NH2] (Ac-[d2Nal][dPhe(4-Cl)][d3Pal]S[NMeY][dK]([CO-Ethylenediamine-Shikimoyl])LRP[dA]-NH2)
Kb: 0.00282 nM

CC(=O)N[C@H](Cc1ccc2ccccc2c1)C(=O)N[C@H](Cc1ccc(Cl)cc1)C(=O)N[C@H](Cc1cccnc1)C(=O)N[C@@H](CO)C(=O)N(C)[C@@H](Cc1ccc(O)cc1)C(=O)N[C@H](CCCCNC(=O)CCNC(=O)c1cccnc1)C(=O)N[C@@H](CC(C)C)C(=O)N[C@@H](CCCCNC(C)C)C(=O)N1CCC[C@H]1C(=O)N[C@H](C)C(N)=O [Example 4a] (Ac-[d2Nal][dPhe(4-Cl)][d3Pal]S[NMeY][dK]([βAla-Nicotinoyl])L[Lys(iPr)]P[dA]-NH2)
Kb: 0.00562 nM

CC(=O)N[C@H](Cc1ccc2ccccc2c1)C(=O)N[C@H](Cc1ccc(Cl)cc1)C(=O)N[C@H](Cc1cccnc1)C(=O)N[C@@H](CO)C(=O)N(C)[C@@H](Cc1ccc(O)cc1)C(=O)N[C@H](CCCCNC(=O)CNC(=O)CNC(=O)c1cccnc1)C(=O)N[C@@H](CC(C)C)C(=O)N[C@@H](CCCCNC(C)C)C(=O)N1CCC[C@H]1C(=O)N[C@H](C)C(N)=O [Example 19c, NAc-D2Nal^1 -D4ClPhe^2 -D3Pal^3 -Ser^4 -NMeTyr^5 -DLys[N-epsilon-Gly-Gly-Nicotinyl]^6 -Leu^7 -Lys(N-epsilon-Isopropyl)^8 -Pro^9 -DAla^10 NH2] (Ac-[d2Nal][dPhe(4-Cl)][d3Pal]S[NMeY][dK]([Gly-Gly-Nicotinoyl])L[Lys(iPr)]P[dA]-NH2)
Kb: 0.00331 nM

CC(=O)N[C@H](Cc1ccc2ccccc2c1)C(=O)N[C@H](Cc1ccc(Cl)cc1)C(=O)N[C@H](Cc1cccnc1)C(=O)N[C@@H](CO)C(=O)N(C)[C@@H](Cc1ccc(O)cc1)C(=O)N[C@H](CCCNC(=O)[C@@H](CO)NC(=O)c1cccnc1)C(=O)N[C@@H](CC(C)C)C(=O)N[C@@H](CCCNC(=N)N)C(=O)N1CCC[C@H]1C(=O)N[C@H](C)C(N)=O [Example 49b, NAc-D2Nal^1 -D4ClPhe^2 -D3Pal^3 -Ser^4 -NMeTyr^5 -DOrn(N-epsilon-DSer-Nicotinyl)^6 -Leu^7 -Arg^8 -Pro^9 -DAla^10 NH2] (Ac-[d2Nal][dPhe(4-Cl)][d3Pal]S[NMeY][dOrn]([dS-Nicotinoyl])LRP[dA]-NH2)
Kb: 0.0155 nM

CC(=O)N[C@H](Cc1ccc2ccccc2c1)C(=O)N[C@H](Cc1ccc(Cl)cc1)C(=O)N[C@H](Cc1cccnc1)C(=O)N[C@@H](CO)C(=O)N(C)[C@@H](Cc1ccc(O)cc1)C(=O)N[C@H](CCCCNC(=O)CCCNC(=O)NNC(=O)c1cccnc1)C(=O)N[C@@H](CC(C)C)C(=O)N[C@@H](CCCCNC(C)C)C(=O)N1CCC[C@H]1C(=O)N[C@H](C)C(N)=O [Example 25b, NAc-D2Nal^1 -D4ClPhe^2 -D3Pal^3 -Ser^4 -NMeTyr^5 -DLys[N-epsilon-(gamma-Aminobutyryl)-Azagly-Nicotinyl]^6 -Leu^7 -Lys(N-epsilon-Isopropyl)^8 -Pro^9 -DAla^10 NH2] (Ac-[d2Nal][dPhe(4-Cl)][d3Pal]S[NMeY][dK]([GABA-azaGly-Nicotinoyl])L[Lys(iPr)]P[dA]-NH2)
Kb: 0.0407 nM

CC(=O)N[C@H](Cc1ccc2ccccc2c1)C(=O)N[C@H](Cc1ccc(Cl)cc1)C(=O)N[C@H](Cc1cccnc1)C(=O)N[C@@H](CO)C(=O)N(C)[C@@H](Cc1ccc(O)cc1)C(=O)N[C@H](CCCCNC(=O)NNC(=O)C1CCCO1)C(=O)N[C@@H](CC(C)C)C(=O)N[C@@H](CCCCNC(C)C)C(=O)N1CCC[C@H]1C(=O)N[C@H](C)C(N)=O (stereo partly shown) [Example 5a, NAc-D2Nal^1 -D4ClPhe^2 -D3Pal^3 -Ser^4 -NMeTyr^5 -DLys(N-epsilon-Azagly-2-Tetrahydrofuroyl)^6 -Leu^7 -Lys(N-epsilon-Isopropyl)^8 -Pro^9 -DAla^10 NH2] (Ac-[d2Nal][dPhe(4-Cl)][d3Pal]S[NMeY][dK]([azaGly-ξTetrahydrofuran2carbonyl])L[Lys(iPr)]P[dA]-NH2)
Kb: 0.0191 nM

CC(=O)N[C@H](Cc1ccc2ccccc2c1)C(=O)N[C@H](Cc1ccc(Cl)cc1)C(=O)N[C@H](Cc1cccnc1)C(=O)N[C@@H](CO)C(=O)N(C)[C@@H](Cc1ccc(O)cc1)C(=O)N[C@H](CCCCNC(=O)[C@@H](C)NC(=O)C1=C[C@@H](O)[C@@H](O)[C@H](O)C1)C(=O)N[C@@H](CC(C)C)C(=O)N[C@@H](CCCNC(=N)N)C(=O)N1CCC[C@H]1C(=O)N[C@H](C)C(N)=O [Example 38a, NAc-D2Nal^1 -D4ClPhe^2 -D3Pal^3 -Ser^4 -NMeTyr^5 -DLys(N-epsilon-DAla-Shikimyl)^6 -Leu^7 -Arg^8 -Pro^9 -DAla^10 NH2] (Ac-[d2Nal][dPhe(4-Cl)][d3Pal]S[NMeY][dK]([dA-Shikimoyl])LRP[dA]-NH2)
Kb: 0.0282 nM

CC(=O)N[C@H](Cc1ccc2ccccc2c1)C(=O)N[C@H](Cc1ccc(Cl)cc1)C(=O)N[C@H](Cc1cccnc1)C(=O)N[C@@H](CO)C(=O)N(C)[C@@H](Cc1ccc(O)cc1)C(=O)N[C@H](CCCCNC(=O)NNC(=O)c1ccccc1O)C(=O)N[C@@H](CC(C)C)C(=O)N[C@@H](CCCCNC(C)C)C(=O)N1CCC[C@H]1C(=O)N[C@H](C)C(N)=O [Example 5c, NAc-D2Nal^1 -D4ClPhe^2 -D3Pal^3 -Ser^4 -NMeTyr^5 -DLys(N-epsilon-Azagly-Salicyl)^6 -Leu^7 -Lys(N-epsilon-Isopropyl)^8 -Pro^9 -DAla^10 NH2] (Ac-[d2Nal][dPhe(4-Cl)][d3Pal]S[NMeY][dK]([azaGly-Salicyloyl])L[Lys(iPr)]P[dA]-NH2)
Kb: 0.0132 nM

CC(=O)N[C@H](Cc1ccc2ccccc2c1)C(=O)N[C@H](Cc1ccc(Cl)cc1)C(=O)N[C@H](Cc1cccnc1)C(=O)N[C@@H](CO)C(=O)N(C)[C@@H](Cc1ccc(O)cc1)C(=O)N[C@H](CCCCNC(=O)[C@@H](Cc1cccnc1)NC(=O)C1=C[C@@H](O)[C@@H](O)[C@H](O)C1)C(=O)N[C@@H](CC(C)C)C(=O)N[C@@H](CCCNC(=N)N)C(=O)N1CCC[C@H]1C(=O)N[C@H](C)C(N)=O [Example 48i, NAc-D2Nal^1 -D4ClPhe^2 -D3Pal^3 -Ser^4 -NMeTyr^5 -DLys(N-epsilon-D-3Pal-Shikimyl)^6 -Leu^7 -Arg^8 -Pro^9 -DAla^10 NH2] (Ac-[d2Nal][dPhe(4-Cl)][d3Pal]S[NMeY][dK]([d3Pal-Shikimoyl])LRP[dA]-NH2)
Kb: 0.0363 nM

CC(=O)N[C@H](Cc1ccc2ccccc2c1)C(=O)N[C@H](Cc1ccc(Cl)cc1)C(=O)N[C@H](Cc1cccnc1)C(=O)N[C@@H](CO)C(=O)N(C)[C@@H](Cc1ccc(O)cc1)C(=O)N[C@H](CCCNC(=O)CNC(=O)C1=C[C@@H](O)[C@@H](O)[C@H](O)C1)C(=O)N[C@@H](CC(C)C)C(=O)N[C@@H](CCCNC(=N)N)C(=O)N1CCC[C@H]1C(=O)N[C@H](C)C(N)=O [Example 49c, NAc-D2Nal^1 -D4ClPhe^2 -D3Pal^3 -Ser^4 -NMeTyr^5 -DOrn(N-epsilon-Gly-Shikimyl)^6 -Leu^7 -Arg^8 -Pro^9 -DAla^10 NH2] (Ac-[d2Nal][dPhe(4-Cl)][d3Pal]S[NMeY][dOrn]([Gly-Shikimoyl])LRP[dA]-NH2)
Kb: 0.0427 nM
